ChEMBL document CHEMBL3797052 (Eur J Med Chem, 2016)

What was measured:
[1] = test system: K562; assay: Antiproliferative activity against human K562 cells assessed as growth inhibition after 48 hrs by sulforhodamine B assay; assay type: functional; conditions: K562, 48 h; for CC50: read-out: LC50 (the source's name)
[2] = Antiproliferative activity against human HCC2998 cells assessed as cell growth at 10^-8 M after 48 hrs by sulforhodamine B assay; assay type: functional; conditions: HCC 2998, 48 h, read-out: Activity
[3] = Antiproliferative activity against human RXF393 cells assessed as cell growth at 10^-4 M after 48 hrs by sulforhodamine B assay; assay type: functional; conditions: RXF 393, 48 h, read-out: Activity
[4] = Antiproliferative activity against human SF268 cells assessed as cell growth at 10^-8 M after 48 hrs by sulforhodamine B assay; assay type: functional; conditions: SF-268, 48 h, read-out: Activity
[5] = test system: ACHN; assay: Antiproliferative activity against human ACHN cells assessed as growth inhibition after 48 hrs by sulforhodamine B assay; assay type: functional
[6] = test system: M14; assay: Antiproliferative activity against human M14 cells assessed as cell growth at 10^-4 M after 48 hrs by sulforhodamine B assay; assay type: functional; conditions: M14, 48 h, read-out: Activity
[7] = Antiproliferative activity against human SW620 cells assessed as growth inhibition after 48 hrs by sulforhodamine B assay; assay type: functional; conditions: SW-620, 48 h; for CC50: read-out: LC50 (the source's name)
[8] = Antiproliferative activity against human MOLT4 cells assessed as cell growth at 10^-4 M after 48 hrs by sulforhodamine B assay; assay type: functional; conditions: MOLT-4, 48 h, read-out: Activity
[9] = Antiproliferative activity against human OVCAR5 cells assessed as growth inhibition after 48 hrs by sulforhodamine B assay; assay type: functional; conditions: OVCAR-5, 48 h; for CC50: read-out: LC50 (the source's name)
[10] = test system: EKVX; assay: Antiproliferative activity against human EKVX cells assessed as cell growth at 10^-6 M after 48 hrs by sulforhodamine B assay; assay type: functional; conditions: read-out: Activity
[11] = test system: T47D; assay: Antiproliferative activity against human T47D cells assessed as cell growth at 10^-4 M after 48 hrs by sulforhodamine B assay; assay type: functional; conditions: read-out: Activity
[12] = test system: U-251; assay: Antiproliferative activity against human U251 cells assessed as cell growth at 10^-6 M after 48 hrs by sulforhodamine B assay; assay type: functional; conditions: U-251, 48 h, read-out: Activity
[13] = Antiproliferative activity against human OVCAR3 cells assessed as cell growth at 10^-7 M after 48 hrs by sulforhodamine B assay; assay type: functional; conditions: OVCAR-3, 48 h, read-out: Activity
[14] = test system: U-251; assay: Antiproliferative activity against human U251 cells assessed as cell growth at 10^-4 M after 48 hrs by sulforhodamine B assay; assay type: functional; conditions: U-251, 48 h, read-out: Activity
[15] = test system: M14; assay: Antiproliferative activity against human M14 cells assessed as cell growth at 10^-8 M after 48 hrs by sulforhodamine B assay; assay type: functional; conditions: M14, 48 h, read-out: Activity
[16] = test system: MDA-MB-435; assay: Antiproliferative activity against human MDA-MB-435 cells assessed as cell growth at 10^-8 M after 48 hrs by sulforhodamine B assay; assay type: functional; conditions: MDA-MB-435, 48 h, read-out: Activity
[17] = Antiproliferative activity against human SNB19 cells assessed as cell growth at 10^-8 M after 48 hrs by sulforhodamine B assay; assay type: functional; conditions: SNB-19, 48 h, read-out: Activity
[18] = test system: U-251; assay: Antiproliferative activity against human U251 cells assessed as cell growth at 10^-7 M after 48 hrs by sulforhodamine B assay; assay type: functional; conditions: U-251, 48 h, read-out: Activity
[19] = Antiproliferative activity against human HL-60(TB) cells assessed as growth inhibition after 48 hrs by sulforhodamine B assay; assay type: functional; conditions: HL-60, 48 h; for CC50: read-out: LC50 (the source's name)
[20] = test system: EKVX; assay: Antiproliferative activity against human EKVX cells assessed as cell growth at 10^-8 M after 48 hrs by sulforhodamine B assay; assay type: functional; conditions: read-out: Activity
[21] = test system: SN12C; assay: Antiproliferative activity against human SN12C cells assessed as growth inhibition after 48 hrs by sulforhodamine B assay; assay type: functional; conditions: for CC50: read-out: LC50 (the source's name)
[22] = Antiproliferative activity against human DU145 cells assessed as cell growth at 10^-8 M after 48 hrs by sulforhodamine B assay; assay type: functional; conditions: DU-145, 48 h, read-out: Activity
[23] = test system: SK-MEL-5; assay: Antiproliferative activity against human SK-MEL-5 cells assessed as cell growth at 10^-7 M after 48 hrs by sulforhodamine B assay; assay type: functional; conditions: SK-MEL-5, 48 h, read-out: Activity
[24] = test system: SN12C; assay: Antiproliferative activity against human SN12C cells assessed as cell growth at 10^-8 M after 48 hrs by sulforhodamine B assay; assay type: functional; conditions: read-out: Activity
[25] = Antiproliferative activity against human OVCAR8 cells assessed as cell growth at 10^-8 M after 48 hrs by sulforhodamine B assay; assay type: functional; conditions: OVCAR-8, 48 h, read-out: Activity
[26] = test system: Malme-3M; assay: Antiproliferative activity against human MALME-3M cells assessed as growth inhibition after 48 hrs by sulforhodamine B assay; assay type: functional
[27] = test system: T47D; assay: Antiproliferative activity against human T47D cells assessed as cell growth at 10^-6 M after 48 hrs by sulforhodamine B assay; assay type: functional; conditions: read-out: Activity
[28] = test system: SR; assay: Antiproliferative activity against human SR cells assessed as cell growth at 10^-8 M after 48 hrs by sulforhodamine B assay; assay type: functional; conditions: read-out: Activity
[29] = test system: SR; assay: Antiproliferative activity against human SR cells assessed as growth inhibition after 48 hrs by sulforhodamine B assay; assay type: functional
[30] = test system: SK-MEL-28; assay: Antiproliferative activity against human SK-MEL-28 cells assessed as cell growth at 10^-6 M after 48 hrs by sulforhodamine B assay; assay type: functional; conditions: SK-MEL-28, 48 h, read-out: Activity
[31] = Antiproliferative activity against human IGROV1 cells assessed as cell growth at 10^-4 M after 48 hrs by sulforhodamine B assay; assay type: functional; conditions: IGROV-1, 48 h, read-out: Activity
[32] = test system: MCF7; assay: Antiproliferative activity against human MCF7 cells assessed as cell growth at 10^-8 M after 48 hrs by sulforhodamine B assay; assay type: functional; conditions: MCF7, 48 h, read-out: Activity
[33] = test system: SR; assay: Antiproliferative activity against human SR cells assessed as cell growth at 10^-6 M after 48 hrs by sulforhodamine B assay; assay type: functional; conditions: read-out: Activity
[34] = Antiproliferative activity against human SF268 cells assessed as cell growth at 10^-4 M after 48 hrs by sulforhodamine B assay; assay type: functional; conditions: SF-268, 48 h, read-out: Activity
[35] = test system: NCI-H460; assay: Antiproliferative activity against human NCI-H460 cells assessed as cell growth at 10^-4 M after 48 hrs by sulforhodamine B assay; assay type: functional; conditions: NCI-H460, 48 h, read-out: Activity
[36] = Antiproliferative activity against human OVCAR4 cells assessed as cell growth at 10^-6 M after 48 hrs by sulforhodamine B assay; assay type: functional; conditions: OVCAR-4, 48 h, read-out: Activity
[37] = test system: SN12C; assay: Antiproliferative activity against human SN12C cells assessed as cell growth at 10^-6 M after 48 hrs by sulforhodamine B assay; assay type: functional; conditions: read-out: Activity
[38] = target: RAF proto-oncogene serine/threonine-protein kinase (Homo sapiens, UniProt P04049); assay: Inhibition of human C-RAF measured after 40 mins by scintillation counting
RAF proto-oncogene serine/threonine-protein kinase, sequence (P04049 whole entry): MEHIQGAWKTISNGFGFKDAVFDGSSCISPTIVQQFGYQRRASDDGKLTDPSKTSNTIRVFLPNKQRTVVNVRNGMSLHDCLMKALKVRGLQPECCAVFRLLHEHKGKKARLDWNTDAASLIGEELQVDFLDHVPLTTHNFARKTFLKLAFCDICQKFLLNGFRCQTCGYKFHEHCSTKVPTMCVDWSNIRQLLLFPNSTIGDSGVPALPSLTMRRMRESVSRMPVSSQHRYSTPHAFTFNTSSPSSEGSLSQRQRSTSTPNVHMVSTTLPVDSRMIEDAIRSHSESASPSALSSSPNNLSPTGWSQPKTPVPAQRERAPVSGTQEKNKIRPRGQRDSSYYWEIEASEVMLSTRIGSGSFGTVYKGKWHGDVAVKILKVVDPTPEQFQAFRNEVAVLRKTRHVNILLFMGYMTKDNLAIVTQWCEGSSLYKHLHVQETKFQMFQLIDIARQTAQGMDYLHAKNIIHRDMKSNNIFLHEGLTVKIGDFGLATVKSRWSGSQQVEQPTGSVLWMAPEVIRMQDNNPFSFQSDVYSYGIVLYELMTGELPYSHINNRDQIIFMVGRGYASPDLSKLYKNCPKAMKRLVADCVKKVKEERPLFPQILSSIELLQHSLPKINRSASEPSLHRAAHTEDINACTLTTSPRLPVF

SMILES: CNC(=O)c1cc(Oc2ccc3nc(NC(=O)Nc4ccc(Cl)c(C(F)(F)F)c4)sc3c2)ccn1
- TGI [1]: > 100 µM
- CC50 [1]: > 100 µM
- growth at 0.01 µM [2]: 107%
- growth at 100 µM [3]: -78%
- growth at 0.01 µM [4]: 107%
- GI50 [5]: 1.85 µM
- LC50 [5]: 7.82 µM
- TGI [5]: 3.8 µM
- growth at 100 µM [6]: 15%
- GI50 [7]: 2.99 µM
- TGI [7]: > 100 µM
- CC50 [7]: > 100 µM
- growth at 100 µM [8]: 55%
- GI50 [9]: 2.46 µM
- TGI [9]: 7.55 µM
- CC50 [9]: > 100 µM
- growth at 1 µM [10]: 82%
- growth at 100 µM [11]: -16%
- growth at 1 µM [12]: 89%
- growth at 0.1 µM [13]: 111%
- growth at 100 µM [14]: -34%
- growth at 0.01 µM [15]: 90%
- growth at 0.01 µM [16]: 91%
- growth at 0.01 µM [17]: 101%
- growth at 0.1 µM [18]: 101%
- GI50 [19]: > 100 µM
- TGI [19]: > 100 µM
- CC50 [19]: > 100 µM
- growth at 0.01 µM [20]: 97%
- GI50 [21]: 2.44 µM
- TGI [21]: > 100 µM
- CC50 [21]: > 100 µM
- growth at 0.01 µM [22]: 109%
- growth at 0.1 µM [23]: 95%
- growth at 0.01 µM [24]: 97%
- growth at 0.01 µM [25]: 105%
- GI50 [26]: 1.61 µM
- TGI [26]: 3.63 µM
- growth at 1 µM [27]: 43%
- growth at 0.01 µM [28]: 110%
- GI50 [29]: 0.412 µM
- LC50 [29]: > 100 µM
- TGI [29]: 9.1 µM
- growth at 1 µM [30]: 78%
- growth at 100 µM [31]: -35%
- growth at 0.01 µM [32]: 92%
- growth at 1 µM [33]: 15%
- growth at 100 µM [34]: -5%
- growth at 100 µM [35]: 10%
- growth at 1 µM [36]: 82%
- growth at 1 µM [37]: 81%
- IC50 [38]: 0.111 µM

SMILES: CNC(=O)c1cc(Oc2ccc3nc(NC(=O)c4cc(C(F)(F)F)cc(C(F)(F)F)c4)sc3c2)ccn1
- GI50 [1]: 3.53 µM
- TGI [1]: > 100 µM
- CC50 [1]: > 100 µM
- growth at 0.01 µM [2]: 105%
- growth at 100 µM [3]: -78%
- growth at 0.01 µM [4]: 93%
- GI50 [5]: 3.26 µM
- LC50 [5]: 43.2 µM
- TGI [5]: 11.8 µM
- growth at 100 µM [6]: -38%
- GI50 [7]: 7.56 µM
- TGI [7]: 63.8 µM
- CC50 [7]: > 100 µM
- growth at 100 µM [8]: -7%
- GI50 [9]: 4.23 µM
- TGI [9]: 25 µM
- CC50 [9]: > 100 µM
- growth at 1 µM [10]: 90%
- growth at 100 µM [11]: -40%
- growth at 1 µM [12]: 99%
- growth at 0.1 µM [13]: 102%
- growth at 100 µM [14]: -73%
- growth at 0.01 µM [15]: 99%
- growth at 0.01 µM [16]: 101%
- growth at 0.01 µM [17]: 98%
- growth at 0.1 µM [18]: 97%
- GI50 [19]: 2.49 µM
- TGI [19]: 5.11 µM
- CC50 [19]: > 100 µM
- growth at 0.01 µM [20]: 94%
- GI50 [21]: 3.22 µM
- TGI [21]: 12.5 µM
- CC50 [21]: 89.8 µM
- growth at 0.01 µM [22]: 105%
- growth at 0.1 µM [23]: 96%
- growth at 0.01 µM [24]: 98%
- growth at 0.01 µM [25]: 97%
- GI50 [26]: 2.03 µM
- TGI [26]: 6.65 µM
- CC50 ([26]; read-out: LC50 (the source's name)): > 100 µM
- growth at 1 µM [27]: 100%
- growth at 0.01 µM [28]: 91%
- GI50 [29]: 3.37 µM
- LC50 [29]: > 100 µM
- TGI [29]: 15 µM
- growth at 1 µM [30]: 87%
- growth at 100 µM [31]: -35%
- growth at 0.01 µM [32]: 93%
- growth at 1 µM [33]: 100%
- growth at 100 µM [34]: -37%
- growth at 100 µM [35]: -69%
- growth at 1 µM [36]: 89%
- growth at 1 µM [37]: 96%
- IC50 [38]: 0.695 µM
